# Test results: ChEMBL document CHEMBL3600310 (J Med Chem, 2015)
# How the values were obtained:
# MDA-MB-435 = assay: Cytotoxicity against human MDA-MB-435 cells after 72 hrs by MTT assay; assay type: functional, cell-based; conditions: MDA-MB-435, 72 h
# A549 = assay: Cytotoxicity against human A549 cells after 72 hrs by MTT assay; assay type: functional, cell-based; conditions: A549, 72 h
# Mus musculus = assay: Toxicity in human A549 cells xenografted BALB/C mouse assessed as change in body weight at 0.5 mg/kg, ip for 5 days; assay type: organism-based; conditions: in vivo, 120 h
# HCT-116 = assay: Cytotoxicity against human HCT116 cells after 72 hrs by MTT assay; assay type: functional, cell-based; conditions: HCT-116, 72 h
structure (smiles),measurement,setting,value
CC[C@@]1(O)C(=O)OCc2c1cc1n(c2=O)Cc2cc3c(CN(C)C)c(O)ccc3nc2-1 [TOPOTECAN],IC50,MDA-MB-435,400 nM
same,IC50,A549,7400 nM
same,Activity,Mus musculus,Toxic
same,IC50,HCT-116,700 nM
